What was measured:
Assay type in all cases: cell-based, human
MOLT-4 = assay: NCI SRB cytotoxicity, MOLT-4; conditions: Leukemia MOLT-4, 48 hrs exposure
Source text: (§1) The C8-linked carbazole-PBD hybrids have been tested against sixty human tumour cell lines derived from nine cancer types (leukemia, non-small cell lung cancer, colon cancer, CNS cancer, melanoma, ovarian cancer, renal cancer, prostate cancer and breast cancer) as per NCI protocol, For each compound, dose response curves for individual cell lines have been measured at a minimum of five concentrations at 10 fold dilutions. A protocol of 48 hrs continuous drug exposure has been used, and a sulforhodamine B (SRB) protein assay was used to estimate cell viability or growth. The concentration for 50% cell growth inhibition (GI50), total cell growth inhibition (TGI, 0% growth) and 50% cell death (LC50, […]) compared with the control has been calculated (Table-3).
(§2) Compounds 6c and 14a have been evaluated for in vitro cytotoxicity in sixty cell lines from nine human cancer types of lung (Hop-62, NCI-H226, NCI-H522), leukemia (K-562, SR), colon (HCT-116, HCT-15, HCC-2998), CNS(SF-539), melanoma (SK-MEL-5, UACC-62, M14), ovarian (IGROV1), renal (A498), prostate (PC3) breast (BT-549, MDA-MB-435, HS578T) origin. The results are expressed as percent of cell growth determined relative to that of untreated control cells (Table 1).

A549/ATCC = assay: NCI SRB cytotoxicity, A549/ATCC; conditions: Non-small cell lung A549/ATCC, 48 hrs exposure
Source text: as §1, §2

SR = assay: NCI SRB cytotoxicity, SR; conditions: Leukemia SR, 48 hrs exposure
Source text: as §1, §2

| SMILES | GI50 (MOLT-4) [nM] | GI50 (A549/ATCC) [nM] | GI50 (SR) [nM] |
| --- | --- | --- | --- |
| COc1cc2c(cc1OCCCCCn1c3ccccc3c3ccccc31)N=C[C@@H]1CCCN1C2=O [Compound 6c, 7-Methoxy-8-[5-(9H-9-carbazoly)pentyloxy]-(11aS)-1,2,3,11a-tetrahydro-5H-Pyrrolo[2,1-c][1,4]benzodiazepin-5-one] | 2150 | 1570 | – |
| COc1cc2c(cc1OCCCN1CCN(CCCn3c4ccccc4c4ccccc43)CC1)N=C[C@@H]1CCCN1C2=O [Compound 14a] | – | – | 30 |

Source: patent publication US8927538B2, “Carbazole linked pyrrolo[2,1-c][1,4]benzodiazefine hybrids as potential anticancer agents and process for the preparation thereof” (Council of Scientific & Industrial Research, priority 2010, dated 2015)
